We go through 14 compounds from ChEMBL document CHEMBL4118205, “Design, synthesis and biological evaluation of artemisinin derivatives containing fluorine atoms as anticancer agents” (Bioorg Med Chem Lett, 2018).

The subject of experiment [1] is L02. The experiment can be described thus: Cytotoxicity against human L02 cells assessed as reduction in cell viability after 72 hrs by MTT assay. The format is functional, cell-based. Particulars: L02, 72 h. A general note: Formazan colour is commonly taken as a measure of viable cells.
In another experiment the test system is A-375. The experiment can be described thus: Cytotoxicity against human A375 cells assessed as reduction in cell viability after 72 hrs by MTT assay. The format is functional, cell-based. Particulars: A-375, 72 h.
Experiment [2] has as its system A549. Briefly: Cytotoxicity against human A549 cells assessed as reduction in cell viability after 72 hrs by MTT assay. Particulars: A549, 72 h. Format: functional, cell-based.
In experiment [3] the test system is MDA-MB-231. Briefly: Cytotoxicity against human MDA-MB-231 cells assessed as reduction in cell viability after 72 hrs by MTT assay. The format is functional, cell-based. To be noted: MDA-MB-231, 72 h.
Experiment [4] deals with SH-SY5Y. The experiment can be described thus: Cytotoxicity against human SH-SY5Y cells assessed as reduction in cell viability after 72 hrs by MTT assay. The format is functional, cell-based.
The subject of experiment [5] is U-87 MG. Briefly: Cytotoxicity against human U87 cells assessed as reduction in cell viability after 72 hrs by MTT assay. The format is functional, cell-based, U-87MG ATCC.
Experiment [6] has as its system MCF7. The experiment can be described thus: Cytotoxicity against human MCF7 cells assessed as reduction in cell viability after 72 hrs by MTT assay. The format is functional, cell-based. To be noted: MCF7, 72 h.
The subject of experiment [7] is L02. The experiment can be described thus: Cytotoxicity against human L02 cells assessed as reduction in cell viability after 24 to 72 hrs by MTT assay. The format is functional, cell-based.
Experiment [8] deals with MCF7. The experiment can be described thus: Cytotoxicity against human MCF7 cells assessed as reduction in cell viability after 24 to 72 hrs by MTT assay. Format: functional, cell-based.
In experiment [9] the test system is SH-SY5Y. The experiment can be described thus: Cytotoxicity against human SH-SY5Y cells assessed as reduction in cell viability after 24 to 72 hrs by MTT assay. The format is functional, cell-based.
Experiment [10] relates to MDA-MB-231. The experiment can be described thus: Cytotoxicity against human MDA-MB-231 cells assessed as reduction in cell viability after 24 to 72 hrs by MTT assay. The format is functional, cell-based.
The test system of experiment [11] is A549. Briefly: Cytotoxicity against human A549 cells assessed as reduction in cell viability after 24 to 72 hrs by MTT assay. The format is functional, cell-based.
In experiment [12] the test system is U-87 MG. The experiment can be described thus: Cytotoxicity against human U87 cells assessed as reduction in cell viability after 24 to 72 hrs by MTT assay. Format: functional, cell-based, U-87MG ATCC.

As for `COc1cccc2c1C(=O)c1c(O)c3c(c(O)c1C2=O)C[C@@](O)(C(=O)CO)C[C@@H]3O[C@H]1C[C@H](N)[C@H](O)[C@H](C)O1` [DOXORUBICIN], the concentration for half-maximal inhibition (IC50) (as a rule, the concentration that gives 50% inhibition) in the experiment on L02 [1] came to 0.9 µM; in the experiment on A-375 it was 0.4 µM; in the experiment with A549 [2] it was 2.3 µM; in the experiment on MDA-MB-231 [3], 2.8 µM.

On to `C[C@H]1[C@H](N2CCN(c3ccc(F)cc3)CC2)O[C@@H]2O[C@@]3(C)CC[C@H]4[C@H](C)CC[C@@H]1[C@@]24OO3`, for which the IC50 with L02 [1] is 11.2 µM; in the experiment with A-375, over 50 µM; with A549 [2] it was over 50 µM; with MDA-MB-231 [3], over 50 µM; with SH-SY5Y [4], over 50 µM; with U-87 MG [5], 25.5 µM. In addition, the IC50 in the experiment with MCF7 [6] amounted to 28.8 µM.

For the compound `C[C@H]1[C@H](NCc2ccc(OC(F)(F)F)cc2)O[C@@H]2O[C@@]3(C)CC[C@H]4[C@H](C)CC[C@@H]1[C@@]24OO3`, the IC50 in the experiment on L02 [1] was determined as 35.7 µM; with A-375, 10.9 µM; in the experiment with A549 [2] it was 17.9 µM; in the experiment on MDA-MB-231 [3] it was 21.8 µM; in the experiment with SH-SY5Y [4], 5 µM; with U-87 MG [5], 17.7 µM. Besides, the IC50 with MCF7 [6] worked out at 10.2 µM.

Take `Cn1nnc2c(C(N)=O)ncn2c1=O` [TEMOZOLOMIDE]: the IC50 in the experiment with SH-SY5Y [4] and in the experiment with U-87 MG [5] was over 50 µM throughout.

Regarding `C[C@H]1[C@H](N2CCN(Cc3ccc(F)cc3)CC2)O[C@@H]2O[C@@]3(C)CC[C@H]4[C@H](C)CC[C@@H]1[C@@]24OO3`, the IC50 with L02 [1] was 17.1 µM; with A-375, 12.8 µM; in the experiment on A549 [2], 35.9 µM; in the experiment on MDA-MB-231 [3], 12 µM; with SH-SY5Y [4], 15 µM; in the experiment with U-87 MG [5], over 50 µM. In the experiment on MCF7 [6], the half-maximal inhibitory concentration (IC50) amounted to 3.5 µM.

As for `C[C@@H]1CC[C@H]2[C@@H](C)C(=O)O[C@@H]3O[C@@]4(C)CC[C@@H]1[C@]32OO4` [ARTEMISININ], the IC50 with L02 [1], in the experiment with A-375, in the experiment on A549 [2], in the experiment on MDA-MB-231 [3], in the experiment on SH-SY5Y [4] and in the experiment with U-87 MG [5] was over 50 µM in each case. The IC50 in the experiment on MCF7 [6] is over 50 µM.

Turning to `C[C@H]1[C@H](N2CCN(Cc3cccc(F)c3)CC2)O[C@@H]2O[C@@]3(C)CC[C@H]4[C@H](C)CC[C@@H]1[C@@]24OO3`, the IC50 is 23.2 µM in the experiment on L02 [1]; 46.5 µM with A-375; 44.4 µM with A549 [2]; 32.9 µM in the experiment on MDA-MB-231 [3]; over 50 µM with SH-SY5Y [4]; over 50 µM in the experiment on U-87 MG [5]. In addition, the IC50 in the experiment with MCF7 [6] amounted to 6.8 µM.

Consider `C[C@H]1[C@H](Nc2ccc(SC(F)(F)F)cc2)O[C@@H]2O[C@@]3(C)CC[C@H]4[C@H](C)CC[C@@H]1[C@@]24OO3`, for which the IC50 in the experiment on L02 [1] amounted to 9.3 µM; with A-375, 26.5 µM; in the experiment on A549 [2], 41.8 µM; with MDA-MB-231 [3] it was 22.9 µM; in the experiment on SH-SY5Y [4], 20.3 µM; with U-87 MG [5], 28 µM. Moreover, the IC50 in the experiment on MCF7 [6] was 5.3 µM.

For the compound `C[C@H]1[C@@H](O)O[C@@H]2O[C@@]3(C)CC[C@H]4[C@H](C)CC[C@@H]1[C@@]24OO3` [ARTENIMOL], the IC50 is 34 µM with L02 [1]; 38.5 µM in the experiment on A-375; 46.8 µM in the experiment on A549 [2]; 45.7 µM in the experiment on MDA-MB-231 [3]; over 50 µM in the experiment with SH-SY5Y [4]; over 50 µM in the experiment on U-87 MG [5]. Further, in the experiment with MCF7 [6], the IC50 was over 50 µM.

Take `C[C@H]1[C@H](N2CCN(c3cccc(C(F)(F)F)c3)CC2)O[C@@H]2O[C@@]3(C)CC[C@H]4[C@H](C)CC[C@@H]1[C@@]24OO3`: the IC50 was 9.1 µM in the experiment on L02 [1]; 20 µM in the experiment with A-375; 12.9 µM with A549 [2]; 12.5 µM in the experiment with MDA-MB-231 [3]; 11.2 µM with SH-SY5Y [4]; over 50 µM with U-87 MG [5]. The IC50 in the experiment with MCF7 [6] came to 7.5 µM.

For `CCOC(=O)N1CCN([C@@H]2O[C@@H]3O[C@@]4(C)CC[C@H]5[C@H](C)CC[C@@H]([C@H]2C)[C@@]35OO4)CC1`, the IC50 with L02 [7] is over 50 µM; in the experiment with MCF7 [8], 15.2 µM; in the experiment with SH-SY5Y [9], over 50 µM; in the experiment on MDA-MB-231 [10] it was 19.2 µM; in the experiment on A549 [11], 19.9 µM; with U-87 MG [12] it was over 50 µM.

Regarding `C[C@H]1[C@H](N2CCN(c3ccc(C(F)(F)F)cc3)CC2)O[C@@H]2O[C@@]3(C)CC[C@H]4[C@H](C)CC[C@@H]1[C@@]24OO3`, the IC50 was 20.5 µM in the experiment with L02 [1]; 40.9 µM in the experiment with A-375; over 50 µM with A549 [2]; over 50 µM in the experiment with MDA-MB-231 [3]; over 50 µM with SH-SY5Y [4]; over 50 µM in the experiment on U-87 MG [5]. Besides, the IC50 in the experiment with MCF7 [6] was 27 µM.

On to `C[C@H]1[C@H](N2CCN(C(=O)Nc3ccc(C(F)(F)F)cc3)CC2)O[C@@H]2O[C@@]3(C)CC[C@H]4[C@H](C)CC[C@@H]1[C@@]24OO3`, for which the IC50 was found to be 4 µM in the experiment on L02 [1]; 15 µM with A-375; 21.1 µM with A549 [2]; 5.8 µM with MDA-MB-231 [3]; 3.2 µM with SH-SY5Y [4]; 15.2 µM in the experiment on U-87 MG [5]. The IC50 in the experiment on MCF7 [6] amounted to 2.7 µM.

With `C[C@H]1[C@H](N2CCN(C(=O)Nc3ccc(F)cc3)CC2)O[C@@H]2O[C@@]3(C)CC[C@H]4[C@H](C)CC[C@@H]1[C@@]24OO3`, the IC50 in the experiment on L02 [1] turned out to be 15.6 µM; in the experiment on A-375 it was 9.1 µM; with A549 [2], 17.6 µM; in the experiment on MDA-MB-231 [3], 10.9 µM; with SH-SY5Y [4], 5 µM; in the experiment on U-87 MG [5] it was 28.7 µM. Also, the IC50 in the experiment on MCF7 [6] was determined as 5.5 µM.
